Measured values reported in PubChem BioAssay (NCI).
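1) Cells in 96-well plates. 2) Compound, 48 h, 5 concentrations. 3) Linear interpolation between surrounding doses. 4) Unreached endpoint = highest concentration. TGI: total growth inhibition.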

Tested on: MDA-MB-231 breast
Assay: NCI tumour cell line growth inhibition, 48 h

Compared with `C=C[C@]1(C)CC(O)C2C(=C)C(=O)OC2[C@H]1C(=C)C=O` (stereo partly drawn), `CC(C)Cn1cnc2c(Sc3c([N+](=O)[O-])ncn3C)nc(N)nc21` is higher in TGI: 10.3 µM for the first, over 100 µM for the second.

Tested on: ACHN renal
Assay: NCI tumour cell line growth inhibition, 48 h

Compared with `COc1cc2c(cc1OC)-c1cc(OC)c(OC)cc1[C@H]1CN3CCC[C@@]3(O)C=C21`, `COc1nc(=O)cc(N)n1C1OC(CO)C(O)C1O` (stereo not drawn) is higher in TGI: 0.000787 µM for the first, over 100 µM for the second.

Going from `C=C[C@]1(C)CC(O)C2C(=C)C(=O)OC2[C@H]1C(=C)C=O` (stereo partly drawn) to `C#CCC(O)c1ccccc1C(O)CC#C` (stereo not drawn), the TGI rises from 6.33 µM to over 100 µM.

Work on `CC(C)Cn1cnc2c(Sc3c([N+](=O)[O-])ncn3C)nc(N)nc21` yielded a TGI of over 100 µM.

Tested on: HCT-15 colon
Assay: NCI tumour cell line growth inhibition, 48 h

Compared with `C=C[C@]1(C)CC(O)C2C(=C)C(=O)OC2[C@H]1C(=C)C=O` (stereo partly drawn), `COc1nc(=O)cc(N)n1C1OC(CO)C(O)C1O` (stereo not drawn) is higher in TGI: 7.22 µM for the first, over 100 µM for the second.

`C#CCC(O)c1ccccc1C(O)CC#C` (stereo not drawn) and `CC(C)Cn1cnc2c(Sc3c([N+](=O)[O-])ncn3C)nc(N)nc21` cannot be ordered by TGI: over 100 µM for the first, over 100 µM for the second.

Tested on: NCI-H460 lung
Assay: NCI tumour cell line growth inhibition, 48 h

Compared with `C=C[C@]1(C)CC(O)C2C(=C)C(=O)OC2[C@H]1C(=C)C=O` (stereo partly drawn), `COc1nc(=O)cc(N)n1C1OC(CO)C(O)C1O` (stereo not drawn) is higher in TGI: 31.8 µM for the first, over 100 µM for the second.

`C#CCC(O)c1ccccc1C(O)CC#C` (stereo not drawn) and `CC(C)Cn1cnc2c(Sc3c([N+](=O)[O-])ncn3C)nc(N)nc21` cannot be ordered by TGI: over 100 µM for the first, over 100 µM for the second.

Tested on: OVCAR-5 ovarian
Assay: NCI tumour cell line growth inhibition, 48 h

Compared with `C=C[C@]1(C)CC(O)C2C(=C)C(=O)OC2[C@H]1C(=C)C=O` (stereo partly drawn), `COc1nc(=O)cc(N)n1C1OC(CO)C(O)C1O` (stereo not drawn) is higher in TGI: 24.8 µM for the first, over 100 µM for the second.

`C#CCC(O)c1ccccc1C(O)CC#C` (stereo not drawn) and `CC(C)Cn1cnc2c(Sc3c([N+](=O)[O-])ncn3C)nc(N)nc21` cannot be ordered by TGI: over 100 µM for the first, over 100 µM for the second.

Tested on: MALME-3M melanoma
Assay: NCI tumour cell line growth inhibition, 48 h

Compared with `COc1cc2c(cc1OC)-c1cc(OC)c(OC)cc1[C@H]1CN3CCC[C@@]3(O)C=C21`, `COc1nc(=O)cc(N)n1C1OC(CO)C(O)C1O` (stereo not drawn) is higher in TGI: under 0.0001 µM for the first, over 100 µM for the second.

Compared with `C=C[C@]1(C)CC(O)C2C(=C)C(=O)OC2[C@H]1C(=C)C=O` (stereo partly drawn), `C#CCC(O)c1ccccc1C(O)CC#C` (stereo not drawn) is higher in TGI: 3.62 µM for the first, over 100 µM for the second.

`CC(C)Cn1cnc2c(Sc3c([N+](=O)[O-])ncn3C)nc(N)nc21` gave a TGI of over 59.8 µM.

Tested on: OVCAR-3 ovarian
Assay: NCI tumour cell line growth inhibition, 48 h

First: C=C[C@]1(C)CC(O)C2C(=C)C(=O)OC2[C@H]1C(=C)C=O (stereo partly drawn)
Second: COc1nc(=O)cc(N)n1C1OC(CO)C(O)C1O (stereo not drawn)
The TGI of the first is lower: 7.24 µM for the first, over 100 µM for the second.

`C#CCC(O)c1ccccc1C(O)CC#C` (stereo not drawn) and `CC(C)Cn1cnc2c(Sc3c([N+](=O)[O-])ncn3C)nc(N)nc21` cannot be ordered by TGI: over 100 µM for the first, over 57.4 µM for the second.

Tested on: HL-60(TB) leukemia
Assay: NCI tumour cell line growth inhibition, 48 h

First: COc1cc2c(cc1OC)-c1cc(OC)c(OC)cc1[C@H]1CN3CCC[C@@]3(O)C=C21
Second: COc1nc(=O)cc(N)n1C1OC(CO)C(O)C1O (stereo not drawn)
The TGI of the first is lower: under 0.0001 µM for the first, over 100 µM for the second.

Compared with `C=C[C@]1(C)CC(O)C2C(=C)C(=O)OC2[C@H]1C(=C)C=O` (stereo partly drawn), `C#CCC(O)c1ccccc1C(O)CC#C` (stereo not drawn) is higher in TGI: 2.41 µM for the first, over 100 µM for the second.

Compound `CC(C)Cn1cnc2c(Sc3c([N+](=O)[O-])ncn3C)nc(N)nc21` has a TGI of over 100 µM.

Tested on: SK-MEL-28 melanoma
Assay: NCI tumour cell line growth inhibition, 48 h

First: C=C[C@]1(C)CC(O)C2C(=C)C(=O)OC2[C@H]1C(=C)C=O (stereo partly drawn)
Second: COc1nc(=O)cc(N)n1C1OC(CO)C(O)C1O (stereo not drawn)
The TGI of the first is lower: 4.37 µM for the first, over 100 µM for the second.

`C#CCC(O)c1ccccc1C(O)CC#C` (stereo not drawn) and `CC(C)Cn1cnc2c(Sc3c([N+](=O)[O-])ncn3C)nc(N)nc21` cannot be ordered by TGI: over 100 µM for the first, over 100 µM for the second.

Tested on: LOX IMVI melanoma
Assay: NCI tumour cell line growth inhibition, 48 h

First: C=C[C@]1(C)CC(O)C2C(=C)C(=O)OC2[C@H]1C(=C)C=O (stereo partly drawn)
Second: COc1nc(=O)cc(N)n1C1OC(CO)C(O)C1O (stereo not drawn)
The TGI of the first is lower: 4.6 µM for the first, over 100 µM for the second.

`C#CCC(O)c1ccccc1C(O)CC#C` (stereo not drawn) and `CC(C)Cn1cnc2c(Sc3c([N+](=O)[O-])ncn3C)nc(N)nc21` cannot be ordered by TGI: over 100 µM for the first, over 100 µM for the second.

Tested on: HS 578T breast
Assay: NCI tumour cell line growth inhibition, 48 h

`C=C[C@]1(C)CC(O)C2C(=C)C(=O)OC2[C@H]1C(=C)C=O` (stereo partly drawn) gave a TGI of over 100 µM.

Tested on: HT29 colon
Assay: NCI tumour cell line growth inhibition, 48 h

First: C=C[C@]1(C)CC(O)C2C(=C)C(=O)OC2[C@H]1C(=C)C=O (stereo partly drawn)
Second: COc1nc(=O)cc(N)n1C1OC(CO)C(O)C1O (stereo not drawn)
The TGI of the first is lower: 7.05 µM for the first, over 100 µM for the second.

`C#CCC(O)c1ccccc1C(O)CC#C` (stereo not drawn) and `CC(C)Cn1cnc2c(Sc3c([N+](=O)[O-])ncn3C)nc(N)nc21` cannot be ordered by TGI: over 100 µM for the first, over 100 µM for the second.

Tested on: SNB-78 CNS
Assay: NCI tumour cell line growth inhibition, 48 h

Going from `COc1cc2c(cc1OC)-c1cc(OC)c(OC)cc1[C@H]1CN3CCC[C@@]3(O)C=C21` to `COc1nc(=O)cc(N)n1C1OC(CO)C(O)C1O` (stereo not drawn), the TGI rises from 0.00164 µM to over 100 µM.

Compared with `C=C[C@]1(C)CC(O)C2C(=C)C(=O)OC2[C@H]1C(=C)C=O` (stereo partly drawn), `C#CCC(O)c1ccccc1C(O)CC#C` (stereo not drawn) is higher in TGI: 13.4 µM for the first, over 100 µM for the second.

With `CC(C)Cn1cnc2c(Sc3c([N+](=O)[O-])ncn3C)nc(N)nc21` the TGI was over 100 µM.

Tested on: IGROV1 ovarian
Assay: NCI tumour cell line growth inhibition, 48 h

Going from `C=C[C@]1(C)CC(O)C2C(=C)C(=O)OC2[C@H]1C(=C)C=O` (stereo partly drawn) to `COc1nc(=O)cc(N)n1C1OC(CO)C(O)C1O` (stereo not drawn), the TGI rises from 25 µM to over 100 µM.

`C#CCC(O)c1ccccc1C(O)CC#C` (stereo not drawn) and `CC(C)Cn1cnc2c(Sc3c([N+](=O)[O-])ncn3C)nc(N)nc21` cannot be ordered by TGI: over 100 µM for the first, over 100 µM for the second.

Tested on: CCRF-CEM leukemia
Assay: NCI tumour cell line growth inhibition, 48 h

Compared with `C=C[C@]1(C)CC(O)C2C(=C)C(=O)OC2[C@H]1C(=C)C=O` (stereo partly drawn), `COc1nc(=O)cc(N)n1C1OC(CO)C(O)C1O` (stereo not drawn) is higher in TGI: 4.4 µM for the first, over 100 µM for the second.

`C#CCC(O)c1ccccc1C(O)CC#C` (stereo not drawn) and `CC(C)Cn1cnc2c(Sc3c([N+](=O)[O-])ncn3C)nc(N)nc21` cannot be ordered by TGI: over 100 µM for the first, over 100 µM for the second.

Tested on: SK-MEL-2 melanoma
Assay: NCI tumour cell line growth inhibition, 48 h

Compared with `COc1cc2c(cc1OC)-c1cc(OC)c(OC)cc1[C@H]1CN3CCC[C@@]3(O)C=C21`, `COc1nc(=O)cc(N)n1C1OC(CO)C(O)C1O` (stereo not drawn) is higher in TGI: under 0.0001 µM for the first, over 100 µM for the second.

First: C=C[C@]1(C)CC(O)C2C(=C)C(=O)OC2[C@H]1C(=C)C=O (stereo partly drawn)
Second: C#CCC(O)c1ccccc1C(O)CC#C (stereo not drawn)
The TGI of the first is lower: 13.4 µM for the first, over 100 µM for the second.
